Experiments:
GSK3β = GSK3β (Homo sapiens, UniProt P49841); experiment: GSK3β ATP depletion assay; assay type: biochemical; conditions: ATP depletion assay; read-out: GSK3b IC50
Method in brief: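 Kinase activity is read as ATP consumption: luciferase luminescence reports the ATP remaining once roughly half of the 2 μM ATP is used. Reaction mix: 5 nM GSK3β, 10 μM b-CREB peptide, 50 mM Tris pH 7.5, 15 mM MgCl2, 1 mM DTT, 0.1% BSA, 2.5% DMSO. Enzyme and peptide are preincubated 15 min before ATP is added.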

PIM3 = PIM3 (Homo sapiens, UniProt Q86V86); experiment: Pim 3 AlphaScreen assay (high ATP); assay type: biochemical; conditions: read-out: Pim3 IC50
Method in brief: (§1)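 IC50 values rest on detection of phosphorylated Bad peptide: after a ~2 h kinase reaction, an EDTA stop buffer containing anti-phospho Ser/Thr antibody, Protein A and streptavidin AlphaScreen beads was added and read after overnight dark incubation. ATP was high (11-125× Km), with 2.5% DMSO in pH 7.5 Hepes buffer containing MgCl2, BSA, Tween-20 and DTT.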

[1] = test system: KMS11 (human myeloma cell line); experiment: Cell proliferation assay (CellTiter-Glo), KMS11; assay type: cell-based; conditions: Homo sapiens, KMS-11; KMS11 cells, cell proliferation; read-out: KMS11-Luc EC50
Method in brief: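 EC50 derived from CellTiter-Glo luminescence after 3-day exposure at 37° C. Compound was diluted to 2× in medium and added to an equal volume of cells. KMS11 myeloma cells were plated on assay day at 2000/well in IMDM with 10% FBS and sodium pyruvate.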

PIM1 = PIM1 (Homo sapiens, UniProt P11309); experiment: Pim 1 AlphaScreen assay (high ATP); assay type: biochemical; conditions: read-out: Pim1 IC50
Sequence of PIM1 (P11309 whole entry): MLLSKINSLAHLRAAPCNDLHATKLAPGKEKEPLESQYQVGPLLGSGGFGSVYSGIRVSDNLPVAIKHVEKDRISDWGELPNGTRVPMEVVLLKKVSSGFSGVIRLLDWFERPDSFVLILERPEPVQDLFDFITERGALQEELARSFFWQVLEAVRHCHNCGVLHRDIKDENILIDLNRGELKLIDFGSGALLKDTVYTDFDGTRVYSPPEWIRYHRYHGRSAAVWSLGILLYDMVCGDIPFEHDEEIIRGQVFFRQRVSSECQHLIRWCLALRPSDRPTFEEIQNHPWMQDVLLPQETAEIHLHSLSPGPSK
Method in brief: as §1

PIM2 = PIM2 (Homo sapiens, UniProt Q9P1W9); experiment: Pim 2 AlphaScreen assay (high ATP); assay type: biochemical; conditions: read-out: Pim2 IC50
Sequence of PIM2 (Q9P1W9 whole entry): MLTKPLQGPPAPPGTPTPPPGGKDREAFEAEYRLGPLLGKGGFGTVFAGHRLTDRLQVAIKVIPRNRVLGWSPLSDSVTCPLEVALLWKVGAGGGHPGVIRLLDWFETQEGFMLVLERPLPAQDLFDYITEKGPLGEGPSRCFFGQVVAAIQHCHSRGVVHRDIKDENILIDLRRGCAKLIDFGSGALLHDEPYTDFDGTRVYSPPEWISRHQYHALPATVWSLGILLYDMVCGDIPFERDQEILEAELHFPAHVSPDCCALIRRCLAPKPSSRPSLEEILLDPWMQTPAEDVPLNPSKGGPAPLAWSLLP
Method in brief: as §1

Sequence of GSK3β (P49841 whole entry, species assumed): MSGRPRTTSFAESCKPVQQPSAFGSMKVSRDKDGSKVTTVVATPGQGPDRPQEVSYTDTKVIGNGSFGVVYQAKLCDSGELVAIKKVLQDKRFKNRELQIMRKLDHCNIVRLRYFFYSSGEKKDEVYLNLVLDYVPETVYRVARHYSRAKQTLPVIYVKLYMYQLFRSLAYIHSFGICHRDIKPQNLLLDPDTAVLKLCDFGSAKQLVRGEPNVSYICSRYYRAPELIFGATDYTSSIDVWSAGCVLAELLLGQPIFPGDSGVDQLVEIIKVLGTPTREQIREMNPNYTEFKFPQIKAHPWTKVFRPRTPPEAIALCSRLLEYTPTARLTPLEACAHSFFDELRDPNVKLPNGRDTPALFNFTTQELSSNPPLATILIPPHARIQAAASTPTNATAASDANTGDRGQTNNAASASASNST

| SMILES | IC50 (GSK3β) [nM] | IC50 (PIM3) [nM] | EC50 [1] [nM] | IC50 (PIM1) [nM] | IC50 (PIM2) [nM] |
| --- | --- | --- | --- | --- | --- |
| CNC(=O)c1ccc(F)c(-c2nc(C(=O)Nc3cnccc3C3C[C@@H](N)[C@H](O)[C@@H](C(C)C)O3)ccc2F)c1F (stereo in doubt) [Example 316, N-(4-((2S,4R,5S,6R)-4-amino-5-hydroxy-6-isopropyltetrahydro-2H-pyran-2-yl)pyridin-3-yl)-6-(2,6-difluoro-3-(methylcarbamoyl)phenyl)-5-fluoropicolinamide] | 4390 | 5.76 | 60 | 0.27 | 5.1 |
| CC(C)[C@H]1OC(c2ccncc2NC(=O)c2ccc(F)c(-c3c(F)ccc(C(=O)N(C)C)c3F)n2)C[C@@H](N)[C@@H]1O (stereo in doubt) [Example 317, N-(4-((2S,4R,5S,6R)-4-amino-5-hydroxy-6-isopropyltetrahydro-2H-pyran-2-yl)pyridin-3-yl)-6-(3-(dimethylcarbamoyl)-2,6-difluorophenyl)-5-fluoropicolinamide] | > 25000 | 9.6 | 80 | 1 | 6.6 |
| COCCOc1cc(F)c(-c2nc(C(=O)Nc3cnccc3C3C[C@@H](N)[C@H](O)[C@@H](C(C)C)O3)ccc2F)c(F)c1 (stereo in doubt) [Example 318, N-(4-((2S,4R,5S,6R)-4-amino-5-hydroxy-6-isopropyltetrahydro-2H-pyran-2-yl)pyridin-3-yl)-6-(2,6-difluoro-4-(2-methoxyethoxy)phenyl)-5-fluoropicolinamide] | 1160 | 1.7 | 80 | 0.05 | 2.3 |
| CC(C)[C@H]1OC(c2ccncc2NC(=O)c2ccc(F)c(-c3c(F)cc(OCCO)cc3F)n2)C[C@@H](N)[C@@H]1O (stereo in doubt) [Example 319, N-(4-((2S,4R,5S,6R)-4-amino-5-hydroxy-6-isopropyltetrahydro-2H-pyran-2-yl)pyridin-3-yl)-6-(2,6-difluoro-4-(2-hydroxyethoxy)phenyl)-5-fluoropicolinamide] | 1570 | 1.8 | 30 | 0.07 | 3.5 |
| C[C@H]1O[C@@H](c2ccncc2NC(=O)c2nn(Cc3ccccc3)cc2N)C[C@@H](O)[C@]1(C)O [Example 218, 4-amino-1-benzyl-N-(4-((2R,4R,5S,6R)-4,5-dihydroxy-5,6-dimethyltetrahydro-2H-pyran-2-yl)pyridin-3-yl)-1H-pyrazole-3-carboxamide] | 1290 | > 25000 | > 10000 | 12500 | > 25000 |
| C[C@@H]1O[C@H](c2ccncc2NC(=O)c2ccc(F)c(-c3c(F)cccc3F)n2)C[C@H](N)[C@@]1(C)O [Example 220, N-(4-((2S,4S,5R,6S)-4-amino-5-hydroxy-5,6-dimethyltetrahydro-2H-pyran-2-yl)pyridin-3-yl)-6-(2,6-difluorophenyl)-5-fluoropicolinamide] | 9140 | 29.9 | 6210 | 2.09 | 228 |
| Cc1cc(F)c(-c2nc(C(=O)Nc3cnccc3[C@@H]3C[C@@H](N)CC(C)(C)O3)ccc2F)c(F)c1 [Example 313, N-(4-((2S,4R)-4-amino-6,6-dimethyltetrahydro-2H-pyran-2-yl)pyridin-3-yl)-6-(2,6-difluoro-4-methylphenyl)-5-fluoropicolinamide] | 128 | 1.4 | 360 | 0.06 | 8.6 |
| CC1(C)C[C@H](N)C[C@@H](c2ccncc2NC(=O)c2ccc(F)c(-c3c(F)cc(OCCO)cc3F)n2)O1 [Example 314, N-(4-((2S,4R)-4-amino-6,6-dimethyltetrahydro-2H-pyran-2-yl)pyridin-3-yl)-6-(2,6-difluoro-4-(2-hydroxyethoxy)phenyl)-5-fluoropicolinamide] | 109 | 1.1 | 60 | 0.05 | 7.5 |
| COCCOc1cc(F)c(-c2nc(C(=O)Nc3cnccc3[C@@H]3C[C@@H](N)CC(C)(C)O3)ccc2F)c(F)c1 [Example 315, N-(4-((2S,4R)-4-amino-6,6-dimethyltetrahydro-2H-pyran-2-yl)pyridin-3-yl)-6-(2,6-difluoro-4-(2-methoxyethoxy)phenyl)-5-fluoropicolinamide] | 121 | 1.5 | 200 | 0.07 | 11.7 |
| C[C@H]1O[C@@H](c2ccncc2NC(=O)c2ccc(F)c(-c3ccccc3)n2)C[C@@H](N)[C@]1(C)O [Example 320, N-(4-((2R,4R,5S,6R)-4-amino-5-hydroxy-5,6-dimethyltetrahydro-2H-pyran-2-yl)pyridin-3-yl)-5-fluoro-6-phenylpicolinamide] | 3250 | 42 | 4670 | 1 | 245 |
| C[C@H]1O[C@@H](c2ccncc2NC(=O)c2ccc(F)c(-c3ccc(S(C)(=O)=O)cc3)n2)C[C@@H](N)[C@]1(C)O [Example 321, N-(4-((2R,4R,5S,6R)-4-amino-5-hydroxy-5,6-dimethyltetrahydro-2H-pyran-2-yl)pyridin-3-yl)-5-fluoro-6-(4-(methylsulfonyl)phenyl)picolinamide] | 1880 | 783 | > 10000 | 4.7 | 1370 |
| Cc1cc(F)c(-c2nc(C(=O)Nc3cnccc3[C@H]3C[C@@H](N)[C@H](O)[C@@H](C4CC4)O3)ccc2F)c(F)c1 [Example 322, N-(4-((2R,4R,5S,6R)-4-amino-6-cyclopropyl-5-hydroxytetrahydro-2H-pyran-2-yl)pyridin-3-yl)-6-(2,6-difluoro-4-methylphenyl)-5-fluoropicolinamide] | 5240 | 9 | 230 | 0.3 | 6.7 |
| COc1cc(F)c(-c2nc(C(=O)Nc3cnccc3[C@H]3C[C@@H](N)[C@H](O)[C@@H](C4CC4)O3)ccc2F)c(F)c1 [Example 323, N-(4-((2R,4R,5S,6R)-4-amino-6-cyclopropyl-5-hydroxytetrahydro-2H-pyran-2-yl)pyridin-3-yl)-6-(2,6-difluoro-4-methoxyphenyl)-5-fluoropicolinamide] | 4200 | 9.7 | 190 | 0.3 | 13.4 |
| Cc1cc(F)c(-c2nc(C(=O)Nc3cnccc3[C@@H]3C[C@H](N)[C@@H](O)[C@H](C4CC4)O3)ccc2F)c(F)c1 [Example 324, N-(4-((2S,4S,5R,6S)-4-amino-6-cyclopropyl-5-hydroxytetrahydro-2H-pyran-2-yl)pyridin-3-yl)-6-(2,6-difluoro-4-methylphenyl)-5-fluoropicolinamide] | > 25000 | 184 | 4320 | 3.4 | 396 |
| COc1cc(F)c(-c2nc(C(=O)Nc3cnccc3[C@@H]3C[C@H](N)[C@@H](O)[C@H](C4CC4)O3)ccc2F)c(F)c1 [Example 325, N-(4-((2S,4S,5R,6S)-4-amino-6-cyclopropyl-5-hydroxytetrahydro-2H-pyran-2-yl)pyridin-3-yl)-6-(2,6-difluoro-4-methoxyphenyl)-5-fluoropicolinamide] | > 25000 | 181 | 5470 | 4 | 504 |
| CS(=O)(=O)c1cc(F)c(-c2nc(C(=O)Nc3cnccc3[C@@H]3C[C@H](N)[C@@H](O)[C@H](C4CC4)O3)ccc2F)c(F)c1 [Example 326, N-(4-((2S,4S,5R,6S)-4-amino-6-cyclopropyl-5-hydroxytetrahydro-2H-pyran-2-yl)pyridin-3-yl)-6-(2,6-difluoro-4-(methylsulfonyl)phenyl)-5-fluoropicolinamide] | > 25000 | 1930 | > 10000 | 27.5 | 2200 |
| CSc1ccc(F)c(-c2nc(C(=O)Nc3cnccc3[C@H]3C[C@@H](N)[C@](C)(O)[C@@H](C)O3)ccc2F)c1F [Example 327, N-(4-((2R,4R,5S,6R)-4-amino-5-hydroxy-5,6-dimethyltetrahydro-2H-pyran-2-yl)pyridin-3-yl)-6-(2,6-difluoro-3-(methylthio)phenyl)-5-fluoropicolinamide] | 640 | 2.6 | 310 | 0.07 | 18.8 |
